Test results from ChEMBL document CHEMBL4177573 (Bioorg Med Chem, 2017).
The source made the active and inactive calls. The calls are words filed in the database; no cut-off is given here.

Columns and labels:
Mus musculus [1] = assay: Drug level in C57BL/6J mouse at 1 mg/kg, iv measured during 5 mins to 24 hrs by LC/MS/MS method; format: ADME, organism-based; details: in vivo, read-out: Drug uptake
[2] = Cmax in C57BL/6J mouse at 1 mg/kg, sc measured during 5 mins to 24 hrs by LC/MS/MS method; format: ADME, organism-based; set-up: dose 1 mg/kg, route subcutaneous; details: in vivo
[3] = Tmax in C57BL/6J mouse at 1 mg/kg, sc measured during 5 mins to 24 hrs by LC/MS/MS method; format: ADME, organism-based; details: in vivo
[4] = AUC (0 to 24 hrs) in C57BL/6J mouse at 1 mg/kg, sc measured during 5 mins to 24 hrs by LC/MS/MS method; format: ADME, organism-based; set-up: time < 24 hr, dose 1 mg/kg, route subcutaneous; details: in vivo
Mus musculus [5] = assay: Anorectic activity in overnight fasted Y2R-/- C57BL/6J mouse assessed as inhibition of food intake at 10 nmol/kg, sc followed by re-feeding post dose and measured for 2 hrs; format: functional, organism-based
[6] = target: T1, Neuropeptide Y receptor type 1 (Homo sapiens, UniProt P25929); assay: Agonist activity at human neuropeptide Y1 receptor by [35S]GTPgammaS binding assay; format: functional
T1 sequence (P25929 whole entry): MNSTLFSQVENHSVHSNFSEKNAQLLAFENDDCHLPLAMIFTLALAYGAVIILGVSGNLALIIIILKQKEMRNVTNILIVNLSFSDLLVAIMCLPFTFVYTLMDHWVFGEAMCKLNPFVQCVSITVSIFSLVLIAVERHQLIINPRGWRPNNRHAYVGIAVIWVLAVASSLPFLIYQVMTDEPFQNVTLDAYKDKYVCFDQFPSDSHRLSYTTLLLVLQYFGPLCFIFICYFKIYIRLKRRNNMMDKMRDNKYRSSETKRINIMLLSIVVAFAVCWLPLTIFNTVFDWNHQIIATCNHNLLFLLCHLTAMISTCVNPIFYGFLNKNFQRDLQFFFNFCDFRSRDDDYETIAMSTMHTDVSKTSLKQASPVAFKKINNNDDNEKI

concentration (Mus musculus [1]): 2060 nM
Cmax [2]: 452 nM
Tmax [3]: 10.2 min
AUC(0-t) at 24 h [4]: 0.347 µM·h
EC50 [6]: > 1000 nM
Structure (SMILES): CC[C@](C)(NC(=O)[C@H]1C[C@H](O)CN1C(=O)[C@H](CO)NC(=O)c1c[nH]cn1)C(=O)N[C@@H](Cc1ccncc1)C(=O)N[C@@H](CC1CCCCC1)C(=O)N[C@@H](CC(C)(C)C)C(=O)N[C@@H](CC(N)=O)C(=O)N[C@@H](CCCCN)C(=O)NC(C)(C)C(=O)N[C@H](C(=O)N[C@@H](CCCNC(=N)N)C(=O)N[C@@H](CCC(N)=O)C(=O)N[C@@H](CCCNC(=N)N)C(=O)N[C@@H](CC1CCCCC1)C(N)=O)[C@@H](C)O
Activity (Mus musculus [5]): inactive
